Patent US10065990B2, “Cyclic peptide compound, and preparation method, pharmaceutical composition and use thereof” (HANGZHOU GUANYU BIO-MEDICAL CO., LTD, priority 2013, dated 2018)
Like-named read-outs stand apart in the source and are kept apart here.

Assays:
[1] = target: HDAC1 (Homo sapiens, UniProt Q13547); assay: HDAC biochemical activity measurement (fluorescent substrate deacetylation);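 also: fluorogenic acetyl-lysine substrate (20 µM) deacetylated by HDAC1, then developer releases fluorophore read at 360 nm excitation and 460 nm emission, inhibitor incubated 30 min at 37 °C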
Sequence of HDAC1 (Q13547 whole entry, species assumed): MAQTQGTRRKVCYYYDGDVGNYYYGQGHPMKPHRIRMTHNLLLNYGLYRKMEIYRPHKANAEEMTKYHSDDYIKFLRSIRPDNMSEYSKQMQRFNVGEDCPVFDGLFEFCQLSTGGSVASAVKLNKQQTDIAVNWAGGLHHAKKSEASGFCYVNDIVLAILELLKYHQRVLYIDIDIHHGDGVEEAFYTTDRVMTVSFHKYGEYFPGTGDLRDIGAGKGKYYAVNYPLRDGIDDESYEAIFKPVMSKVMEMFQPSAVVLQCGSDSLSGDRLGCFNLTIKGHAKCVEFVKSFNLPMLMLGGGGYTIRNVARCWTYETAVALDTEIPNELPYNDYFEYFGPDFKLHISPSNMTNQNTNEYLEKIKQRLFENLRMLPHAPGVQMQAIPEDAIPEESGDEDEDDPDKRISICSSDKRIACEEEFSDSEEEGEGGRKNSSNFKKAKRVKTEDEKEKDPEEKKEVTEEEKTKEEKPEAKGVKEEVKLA

[2] = target: HDAC3 (Homo sapiens, UniProt O15379); assay: as above; conditions: read-out: IC50 HDAC3; HDAC3; 37° C. 30 minutes;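 also: fluorogenic acetyl-lysine substrate (20 µM) deacetylated by HDAC3, then developer added for 15 min at room temperature, release of fluorophore read at excitation 360 nm, emission 460 nm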
Sequence of HDAC3 (O15379 whole entry, species assumed): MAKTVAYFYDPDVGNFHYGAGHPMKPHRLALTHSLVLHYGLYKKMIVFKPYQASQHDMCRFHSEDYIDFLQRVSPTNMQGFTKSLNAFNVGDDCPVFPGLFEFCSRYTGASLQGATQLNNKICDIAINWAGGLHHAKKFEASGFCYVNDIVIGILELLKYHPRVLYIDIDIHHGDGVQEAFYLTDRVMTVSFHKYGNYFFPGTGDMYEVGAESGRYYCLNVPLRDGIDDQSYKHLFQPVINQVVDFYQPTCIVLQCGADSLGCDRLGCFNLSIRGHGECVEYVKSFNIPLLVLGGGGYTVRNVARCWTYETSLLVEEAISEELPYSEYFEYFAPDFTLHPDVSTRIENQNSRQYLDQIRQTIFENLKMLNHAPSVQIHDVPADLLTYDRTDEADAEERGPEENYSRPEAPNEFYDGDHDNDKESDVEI
Sequence of HDAC3 (Q9Y618 395-489 partner limits assumed, species assumed): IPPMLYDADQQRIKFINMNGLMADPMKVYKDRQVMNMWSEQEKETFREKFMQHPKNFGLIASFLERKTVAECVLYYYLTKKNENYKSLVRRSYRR

[3] = target: T1, HDAC8 (Homo sapiens, UniProt Q9BY41); assay: as above; conditions: 37° C. 30 minutes
T1 sequence (Q9BY41 1-377): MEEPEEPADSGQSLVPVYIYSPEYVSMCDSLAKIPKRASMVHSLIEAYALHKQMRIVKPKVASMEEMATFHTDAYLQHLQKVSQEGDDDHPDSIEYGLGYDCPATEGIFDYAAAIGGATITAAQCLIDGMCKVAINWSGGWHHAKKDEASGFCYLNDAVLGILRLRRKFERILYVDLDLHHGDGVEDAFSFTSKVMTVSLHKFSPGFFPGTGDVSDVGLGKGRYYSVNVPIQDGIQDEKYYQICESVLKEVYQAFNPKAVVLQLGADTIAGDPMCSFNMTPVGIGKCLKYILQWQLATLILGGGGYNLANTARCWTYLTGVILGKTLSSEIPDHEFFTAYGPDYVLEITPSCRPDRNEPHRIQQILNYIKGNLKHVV
Protocol: (§2) The chemical activity of the compound is determined according to the degree of deacetylation inhibition of the HDAC enzyme. This experiment measured the degree of deacetylation related to tumor proliferation and metastasis of HDAC1, HDAC2, HDAC3, HDAC8, HDAC11 five subtypes HDAC enzymes. After the substrate containing an acetylated lysine side chain and HDAC enzyme are labeled with a fluorescent label, the fluorescent substrate is de acetyl. The fluorescent labeled substrate is cleaved by the enzyme, and the fluorescent substance is released, which generates 460 nm emission light under the excitation of 360 nm light.
(§3) HDAC substrate was diluted with reaction buffer to 200M (reaction concentration of 20M), the HDAC enzyme was diluted to the appropriate concentration, then added different concentrations of the test compounds and acted at 37° C. 30 minutes, and then added the same volume of 2-times concentration substrate developing solution (developer), incubated at room temperature for 15 minutes.

[4] = target: T2, HDAC11 (Homo sapiens, UniProt Q96DB2); assay: as above; conditions: read-out: IC50 HDAC11; HDAC11; 37° C. 30 minutes;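 also: HDAC11 enzyme acting on an acetyl-lysine fluorogenic substrate, then a developer frees the fluorophore, read at excitation 360 nm and emission 460 nm, IC50 over a compound dilution series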
T2 sequence (Q96DB2 1-347): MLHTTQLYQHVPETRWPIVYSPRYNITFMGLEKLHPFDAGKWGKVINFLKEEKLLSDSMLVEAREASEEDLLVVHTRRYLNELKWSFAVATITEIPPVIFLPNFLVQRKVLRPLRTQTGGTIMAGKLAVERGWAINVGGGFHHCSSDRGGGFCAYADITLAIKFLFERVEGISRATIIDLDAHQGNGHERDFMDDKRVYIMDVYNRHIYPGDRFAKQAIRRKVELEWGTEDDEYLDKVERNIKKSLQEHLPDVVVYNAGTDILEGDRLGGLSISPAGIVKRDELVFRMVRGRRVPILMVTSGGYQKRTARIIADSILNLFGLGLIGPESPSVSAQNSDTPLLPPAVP

[5] = system: MOLT-4 (human acute lymphoblastic leukemia cells); assay: MTT cancer cell growth inhibition; assay type: cell-based; conditions: MTT, 72 hours incubation, read-out: GI50 Mol
Outline: (§1)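 Cells grown in DMEM or RPMI 1640 with 10% FBS were seeded at 1500/well and left overnight at 37° C., 5% CO2. Compounds at final 10^−5 to 10^−10 M were added in triplicate for 72 h. MTT was then added for 4 h, formazan dissolved in DMSO, and absorbance read at 570 nm to derive GI50.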

[6] = system: lncap (prostate cancer cells); assay: MTT cancer cell growth inhibition; assay type: cell-based; conditions: MTT, 72 hours incubation, read-out: GI50 lnca
Outline: as §1

[7] = system: MCF-7 (human breast cancer cells); assay: MTT cancer cell growth inhibition; assay type: cell-based; conditions: 72 hours incubation, read-out: GI50 MCF
Outline: as §1

[8] = system: HT1080 (human fibrosarcoma cells); assay: MTT cancer cell growth inhibition; assay type: cell-based; conditions: MTT, 72 hours incubation, read-out: GI50 HT1
Outline: as §1

[9] = system: U937 (human leukemia cells); assay: MTT cancer cell growth inhibition; assay type: cell-based; conditions: MTT, 72 hours incubation, read-out: GI50 U93
Outline: as §1

[10] = system: Hela (human cervical cancer cells); assay: MTT cancer cell growth inhibition; assay type: cell-based; conditions: MTT, 72 hours incubation, read-out: GI50 Hela
Outline: as §1

[11] = system: DU145 (human prostate cancer cells); assay: MTT cancer cell growth inhibition; assay type: cell-based; conditions: MTT, 72 hours incubation, read-out: GI50 Du1
Outline: as §1

[12] = system: PANC-1 (Pac-1, human pancreatic cancer cells); assay: MTT cancer cell growth inhibition; assay type: cell-based; conditions: MTT, 72 hours incubation, read-out: GI50 PAN
Outline: as §1

[13] = system: BGC-823 (human gastric cancer cells); assay: MTT cancer cell growth inhibition; assay type: cell-based; conditions: MTT, 72 hours incubation, read-out: GI50 BG
Outline: as §1

[14] = system: A549 (human lung cancer cells); assay: MTT cancer cell growth inhibition; assay type: cell-based; conditions: MTT, 72 hours incubation, read-out: GI50 A54
Outline: as §1

[15] = target: HDAC2 (Homo sapiens, UniProt Q92769); assay: HDAC biochemical activity measurement (fluorescent substrate deacetylation);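 also: HDAC2 enzyme with an acetyl-lysine fluorescent substrate, then developer added, fluorescence read at excitation 360 nm and emission 460 nm, inhibition measured across several compound concentrations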; conditions: 37° C. 30 minutes
Sequence of HDAC2 (Q92769 whole entry, species assumed): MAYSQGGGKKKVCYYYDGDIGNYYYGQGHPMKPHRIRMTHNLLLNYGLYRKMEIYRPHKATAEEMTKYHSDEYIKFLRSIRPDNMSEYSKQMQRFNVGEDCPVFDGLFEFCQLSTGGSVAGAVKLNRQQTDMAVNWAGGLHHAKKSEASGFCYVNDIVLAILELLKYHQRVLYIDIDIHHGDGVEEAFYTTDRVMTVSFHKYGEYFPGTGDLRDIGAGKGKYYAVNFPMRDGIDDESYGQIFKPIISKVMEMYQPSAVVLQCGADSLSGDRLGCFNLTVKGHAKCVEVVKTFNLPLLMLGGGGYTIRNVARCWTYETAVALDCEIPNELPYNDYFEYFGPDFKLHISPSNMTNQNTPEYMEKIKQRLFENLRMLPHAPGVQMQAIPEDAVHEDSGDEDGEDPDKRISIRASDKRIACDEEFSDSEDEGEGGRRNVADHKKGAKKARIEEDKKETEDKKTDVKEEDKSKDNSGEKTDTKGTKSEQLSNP
Protocol: as §2, §3

[16] = target: T3, HDAC7 (Homo sapiens, UniProt Q8WUI4); assay: as above; conditions: HDAC7; 37° C. 30 minutes;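 also: fluorogenic deacetylation assay using acetyl-lysine substrate at 20 µM, enzyme and compound incubated 30 min at 37 °C, then developer added, fluorescence read at 360/460 nm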
T3 sequence (Q8WUI4 1-952): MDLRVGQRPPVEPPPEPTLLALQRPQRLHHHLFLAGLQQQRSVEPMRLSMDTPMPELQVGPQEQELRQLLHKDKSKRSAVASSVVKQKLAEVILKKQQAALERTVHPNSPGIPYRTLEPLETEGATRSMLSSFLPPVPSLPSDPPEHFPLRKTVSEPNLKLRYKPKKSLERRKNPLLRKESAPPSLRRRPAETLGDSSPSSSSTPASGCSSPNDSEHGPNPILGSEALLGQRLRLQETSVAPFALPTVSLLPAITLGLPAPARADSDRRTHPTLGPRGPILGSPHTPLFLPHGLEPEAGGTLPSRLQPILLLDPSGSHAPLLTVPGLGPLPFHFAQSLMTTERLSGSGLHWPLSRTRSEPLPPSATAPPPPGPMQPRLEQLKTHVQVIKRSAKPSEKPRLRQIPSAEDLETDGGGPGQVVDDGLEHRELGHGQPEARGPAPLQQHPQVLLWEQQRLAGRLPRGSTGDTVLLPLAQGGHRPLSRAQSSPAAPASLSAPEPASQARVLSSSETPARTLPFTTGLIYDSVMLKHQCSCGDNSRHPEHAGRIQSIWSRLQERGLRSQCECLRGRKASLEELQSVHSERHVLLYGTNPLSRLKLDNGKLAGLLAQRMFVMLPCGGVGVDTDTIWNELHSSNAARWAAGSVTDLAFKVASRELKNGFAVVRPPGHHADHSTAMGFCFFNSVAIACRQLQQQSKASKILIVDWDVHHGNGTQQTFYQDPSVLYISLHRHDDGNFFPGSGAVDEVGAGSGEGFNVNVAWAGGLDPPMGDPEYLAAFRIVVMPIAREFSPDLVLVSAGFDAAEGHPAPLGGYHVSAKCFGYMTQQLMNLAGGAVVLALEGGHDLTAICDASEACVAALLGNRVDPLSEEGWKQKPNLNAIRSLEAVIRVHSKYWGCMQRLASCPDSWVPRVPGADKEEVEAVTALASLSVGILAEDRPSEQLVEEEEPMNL

[17] = system: K562 (human leukemia cells); assay: MTT cancer cell growth inhibition; assay type: cell-based; conditions: MTT, 72 hours incubation, K562 cells; read-out: GI50 K562
Outline: as §1

[18] = system: KBM5-T315I (human chronic myelogenous leukemia); assay: MTT cancer cell growth inhibition; assay type: cell-based; conditions: MTT, 72 hours incubation, KBM5-T315I cells; read-out: GI50 KBM5-T315I
Outline: as §1

[19] = system: Huh-7 (human hepatoma cells); assay: MTT cancer cell growth inhibition; assay type: cell-based; conditions: MTT, 72 hours incubation, Huh-7 cells; read-out: GI50 Huh-7
Outline: as §1

[20] = system: Bel-7402 (human hepatoma cells); assay: MTT cancer cell growth inhibition; assay type: cell-based; conditions: MTT, 72 hours incubation, Bel-7402 cells; read-out: GI50 Bel-7402
Outline: as §1

[21] = system: MDA-MB-231 (breast cancer cells); assay: MTT cancer cell growth inhibition; assay type: cell-based; conditions: read-out: GI50 MDA-MB-231; MTT, 72 hours incubation, MDA-MB-231 cells
Outline: as §1

[22] = system: HCC827 (human non-small cell lung cancer cells); assay: MTT cancer cell growth inhibition; assay type: cell-based; conditions: MTT, 72 hours incubation, HCC827 cells; read-out: GI50 HCC827
Outline: as §1

[23] = system: KBM-5 (human chronic myelogenous leukemia); assay: MTT cancer cell growth inhibition; assay type: cell-based; conditions: MTT, 72 hours incubation, KBM-5 cells; read-out: GI50 KBM-5
Outline: as §1

[24] = system: N-87 (human gastric cancer cells); assay: MTT cancer cell growth inhibition; assay type: cell-based; conditions: MTT, 72 hours incubation, N-87 cells; read-out: GI50 N-87
Outline: as §1

[25] = system: H1975 (non-small cell lung adenocarcinoma); assay: MTT cancer cell growth inhibition; assay type: cell-based; conditions: MTT, 72 hours incubation, H1975 cells; read-out: GI50 H1975
Outline: as §1

[26] = system: SGC-7901 (human gastric cancer cells); assay: MTT cancer cell growth inhibition; assay type: cell-based; conditions: MTT, 72 hours incubation, SGC-7901 cells; read-out: GI50 SGC-7901
Outline: as §1

[27] = HDAC1, 37° C. 30 minutes, read-out: IC50 HDAC1

C/C=C1\NC(=O)c2cc(F)cc(n2)CNC(=O)C[C@@H](/C=C/CCSC(C)=O)OC(=O)[C@H](C(C)C)NC1=O [Compound 49]
IC50 [1, 27]: 16 nM | IC50 ([1]; Table 3, column C, read-out: IC50 HDAC1, C (six-membered ring with substituents)): 16 nM | IC50 [2]: 48 nM | IC50 [3]: 38 nM | IC50 [4]: 73 nM | GI50 [5]: 20 nM | GI50 [6]: 20 nM | GI50 [7]: 50 nM | GI50 [8]: 70 nM | GI50 [9]: 30 nM | GI50 [10]: 80 nM | GI50 [11]: 10 nM | GI50 [12]: 70 nM | GI50 [13]: 70 nM | GI50 [14]: 60 nM | IC50 [15]: 46 nM

C/C=C1\NC(=O)c2nc(ccc2SC)CNC(=O)C[C@@H](/C=C/CCSC(C)=O)OC(=O)[C@H](C)NC1=O [Compound 213]
IC50 HDAC7 [16]: no activity | IC50 [4]: 87 nM | GI50 [17]: 28 nM | GI50 ([5]; MOLT-4 cells): 40 nM | GI50 [18]: 54 nM | GI50 [19]: 35 nM | GI50 ([6]; lncap cells): 70 nM | GI50 [20]: 53 nM | GI50 ([7]; MCF-7 cells): 90 nM | GI50 ([8]; HT1080 cells): 20 nM | GI50 ([9]; U937 cells): 70 nM | GI50 [21]: 37 nM | GI50 ([10]; Hela cells): 50 nM | GI50 [22]: 28 nM | GI50 ([11]; DU145 cells): 20 nM | GI50 [23]: 78 nM | GI50 ([12]; PANC-1 cells): 80 nM | GI50 [24]: 42 nM | GI50 ([13]; BGC-823 cells): 30 nM | GI50 ([14]; A549 cells): 70 nM | GI50 [25]: 76 nM | GI50 [26]: 58 nM | IC50 [15]: 34 nM

C/C=C1\NC(=O)c2ccc(F)c(n2)CNC(=O)C[C@@H](/C=C/CCSC=O)OC(=O)[C@H](C(C)C)NC1=O [Example 53]
IC50 [1, 27]: 84 nM | IC50 [2]: 29 nM | IC50 HDAC7 [16]: no activity | IC50 [3]: 26 nM | IC50 [4]: 105 nM | IC50 [15]: 43 nM
